The values below come from patent US5849557A, “Oxidized phospholipid degrading enzyme and gene thereof” (Suntory Limited, priority 1993, dated 1998).

Assay [1] addresses T1, oxidized phospholipid degrading enzyme (purified enzyme) (Bos taurus, UniProt Q29460).
T1 construct: from tissue; host or cells: bovine brain gray matter, soluble cytoplasmic fraction
T1 sequence (Q29460 2-232): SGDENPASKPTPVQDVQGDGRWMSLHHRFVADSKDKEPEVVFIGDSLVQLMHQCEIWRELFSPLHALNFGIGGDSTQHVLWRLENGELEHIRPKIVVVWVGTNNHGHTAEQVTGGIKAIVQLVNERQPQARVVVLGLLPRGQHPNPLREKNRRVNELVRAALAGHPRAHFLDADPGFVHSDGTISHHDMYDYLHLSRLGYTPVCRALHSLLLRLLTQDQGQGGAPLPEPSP
T1 sequence (P68401 2-229 partner limits assumed): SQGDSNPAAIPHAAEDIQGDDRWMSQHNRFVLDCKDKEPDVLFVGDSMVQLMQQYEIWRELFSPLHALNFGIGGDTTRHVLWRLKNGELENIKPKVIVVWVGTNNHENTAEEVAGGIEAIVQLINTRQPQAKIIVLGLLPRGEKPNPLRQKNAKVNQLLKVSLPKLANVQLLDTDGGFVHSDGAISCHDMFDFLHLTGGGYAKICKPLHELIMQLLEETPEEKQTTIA
T1 sequence (P43033 2-410 A26E/E154Q partner limits assumed): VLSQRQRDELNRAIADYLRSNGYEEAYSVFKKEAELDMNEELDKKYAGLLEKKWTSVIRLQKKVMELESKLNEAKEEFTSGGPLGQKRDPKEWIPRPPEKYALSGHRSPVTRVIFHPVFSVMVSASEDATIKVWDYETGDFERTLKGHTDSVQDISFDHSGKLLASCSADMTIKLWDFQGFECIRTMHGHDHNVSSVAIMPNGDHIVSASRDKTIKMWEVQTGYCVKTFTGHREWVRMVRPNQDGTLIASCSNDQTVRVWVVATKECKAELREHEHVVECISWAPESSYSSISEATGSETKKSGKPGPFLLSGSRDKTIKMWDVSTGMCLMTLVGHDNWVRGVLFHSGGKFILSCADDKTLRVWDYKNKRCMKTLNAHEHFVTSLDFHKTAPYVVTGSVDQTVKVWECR
Put plainly: biochemical. On the set-up: species or system bovine.

For assay [2], the system named is oxidized phospholipid degrading enzyme. Put plainly: Influence of calcium ions on the enzyme activity. It counts as biochemical, bovine. To be noted: 4 mM calcium chloride. How it is done:
Measurement of the oxidized phospholipid degrading enzyme by using PAF was conducted in a similar manner to Reference Example 2. Namely, Tris-HCl buffer (final concentration: 50 mM, pH 7.4) which contained as a substrate 20 nmol (6,000 dpm) of the labeled PAF obtained in step (a) was added with 5 mM EDTA or 4 mM CaCl2 as needed, to which the sample (enzyme source) to be measured was added to give a total volume of 250 μl.
(§1) They were mixed in a test tube over ice and then incubated at 37° C. for 30 minutes. Thereafter, 2.5 ml of a chloroform-methanol (4:1) mixture were added to terminate the reaction. Subsequent to addition of 0.25 ml of water, the resulting mixture was vigorously mixed for 5 minutes by a vortex stirrer and then centrifuged for 5 minutes at 3,000 rpm to separate it into two layers. From the upper layer, 600 μl were collected, in which 3 ml of "Clearsol I" (product of NACALAI TESQUE INC.) were mixed. The radioactivity was measured by a liquid scintillation counter. From the intensity of the radioactivity, the amount of acetic acid formed as a result of 2-hydrolysis was calculated to determine the enzyme activity.
The enzyme activity was measured by the measuring method of Reference Example 3 except that 4 mM CaCl2 was added instead of 5 mM of EDTA.

Assay [3] has as its target T1, oxidized phospholipid degrading enzyme (purified enzyme). Nature of the assay: Substrate specificity of the purified enzyme. It counts as biochemical, bovine. How it is done:
as §1, with “560 μl” for “2.5 ml”, “(1:1)” for “(4:1)”, “After” for “Subsequent to addition of 0.25 ml of water,”, “stirrer, the mixture was” for “stirrer and then”, “300” for “600”, “the dicarboxylic” for “acetic”
Namely, Tris-HCl buffer (final concentration: 50 mM, pH 7.4) which contained as a substrate 20 nmol (6,000 dpm) of the labeled PAF obtained in step (a) was added with 5 mM EDTA or 4 mM CaCl2 as needed, to which the sample (enzyme source) to be measured was added to give a total volume of 250 μl.
as §1

For assay [4], the target named is T2, 30 kDa subunit of the oxidized phospholipid degrading enzyme (bovine).
T2 chain: T1 sequence (P68401 2-229 partner limits assumed)
Put plainly: heparin Sepharose or sulfated Cellulofine column treatment of the native enzyme. How it is done:
Against buffer A, 15 ml of the roughly purified fraction obtained in step (e) of Example 1 were dialyzed. The solution so dialyzed was then applied to a column (1×5 cm) of "heparin Sepharose" (product of Pharmacia AB) which had been equilibrated with buffer A, whereby about 80% of the enzyme activity passed through the column without adsorption. When the column was washed with buffer A subsequent to the passage of the dialyzed solution, the activity was gradually eluted with tailing.
After the column was washed with about 30 ml of buffer A, the enzyme was eluted with a 30 ml linear gradient of NaCl (0M to 1.5M) in buffer A. The enzyme activity was eluted around about 0.3M NaCl concentration. […] Further, the fractions eluted around about 0.6M NaCl concentration gave only one spot at 45 kDa.

For assay [5], the target named is T3, 30 kDa-29 kDa complex without the 45 kDa subunit (bovine).
T3 chain 1: T1 sequence (Q29460 2-232) with N145T, P146Q
T3 chain 2: T1 sequence (P68401 2-229 partner limits assumed)
Nature of the assay: co-purification of the native enzyme; gel filtration and SDS-PAGE.

The mark [6] stands for this setting: in the presence of 4 mM CaCl2, method of Dole et al.

Changes are numbered by the printed parent chain.

Regarding `O=C(CBr)c1ccc(Br)cc1` [BPB, p-bromophenacyl bromide], in assay [1], the “Inhibition of enzyme reactions (in words)” value is “inhibited”; the “Inhibition of the purified enzyme (in words, summary of Table 3)” value is on record as “inhibited”; testing at 100 µM gave an inhibition of 20%; the inhibition at 1000 µM is 97%.

For `[Ca+2].[Cl-].[Cl-]` [CaCl2, calcium chloride], in assay [2], the “Enhancement of enzyme activity (in words)” value is “slightly enhanced”.

Consider `NC(=O)CI` [IAM, iodoacetamide], for which, in assay [1], the “Inhibition of enzyme reactions (in words)” value is recorded as “not inhibited”; the “Inhibition of the purified enzyme (in words, summary of Table 3)” value was “not inhibited at all”; testing at 100 µM gave an inhibition of 0%; 1000 µM produced 0% inhibition.

Consider `CCCCCCCCCCCCCCCC(=O)OC[C@@H](O)COP(=O)([O-])OCC[N+](C)(C)C` [Lyso PC, 1-palmitoyl-sn-glycero-3-phosphocholine], for which, in assay [3], the “Degrading activity / hydrolysis by the enzyme (in words)” value (shortened to “Degrading activity / hydrolysis”) is listed as “absolutely no degrading activity”. Also, in assay [3] (setting [6]), the Specific activity entry is listed as “Not degraded”.

For the molecule `CCCCCCCCCCCCCCCCOC[C@H](COP(=O)([O-])OCC[N+](C)(C)C)OC(C)=O` [PAF, 1-hexadecyl-2-acetyl-sn-glycero-3-phospho-choline], in assay [3], the “Degrading activity / hydrolysis” value is reported as “shows degrading activity”. The Specific activity in assay [3] (method of Reference Examples 2 and 3) is recorded as 1.45 nmol/min/mg.

With phosphatidylethanolamine [PE], in assay [3], the “Degrading activity / hydrolysis” value is “does not show any degrading activity”. Moreover, the Specific activity result in assay [3] (setting [6]) is recorded as “Not degraded”.

B1: 29 kDa subunit of the oxidized phospholipid degrading enzyme (enzyme)
chain: T1 sequence (Q29460 2-232) with N145T, P146Q
As for B1, in assay [4], the binding result is given as “binds”.

B2: 45 kDa subunit of the oxidized phospholipid degrading enzyme (other)
chain: T1 sequence (P43033 2-410 A26E/E154Q partner limits assumed)
For B2, the binding result in assay [5] is “binds”.

In general, inhibition refers to the percentage by which the read-out fell short of the control.
